This is an account of results in article PMC11477965, “Synthesis and Anti-Liver Fibrosis Research of Aspartic Acid Derivatives” (Molecules, 2024).

As usually defined, the melting point is the temperature of the solid-liquid transition.

One data set relates to COL1A1 promoter. Briefly: COL1A1 promoter luciferase reporter inhibition assay in LX-2 cells.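 For all read-outs here: Anti-fibrotic screen: luciferase reporter driven by the COL1A1 promoter in human hepatic stellate LX-2 cells, compounds applied in complete medium in 96-well plates.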 The format is cell-based, human. As to conditions: LX-2 cells; for inhibition at 500 µM: Homo sapiens, read-out: Inhibitory Rate (%) of COL1A1 promotor; for relative fluorescence unit (RFU) of COL1A1 promotor: mean ± SD, n = 3, Control 124874.7 ± 10750.9. Background: A reporter such as luciferase makes a cellular process visible.

Structures are written as SMILES. Where a SMILES comes first, the peptide text is derived from it. Some results are limits rather than exact numbers.

Experimental for COL1A1 promoter: A total of 32 target compounds, the lead compound L-Asp, and the positive control epigallocatechin gallate (EGCG), known for its anti-hepatic fibrotic activity [29], were tested for inhibitory effects on COL1A1 promoter activity at a concentration of 0.5 mM.
The LX-2 cells at 90% confluent were transfected with the plasmid of pGL4.17-COL1A1 promoter using Lipofectamine 2000 (Invitrogen, 11668019, Carlsbad, CA, USA) with Opti-MEM serum-free medium (Gibco, 1930104). After culturing for 6 h, the cells were replaced with a complete medium and seeded in 96-well plates for 24 h. The compound to be tested was prepared using a complete medium and added to the 96-well plate. After 24 h, Bright-Glo Luciferase Assay System (Promega, Madison, WI, USA) was used to detect the activity of COL1A1 promoter and the assaying inhibition rate.

Turning to `CN[C@@H](CCC(=O)O)C(=O)O` [Compound 1, Methyl-L-glutamic acid], the melting point is 156.1 to 157.5 °C. The inhibition at 500 µM in the data set with COL1A1 promoter (0.5 mM, 24 h) is under 0%. Moreover, the “relative fluorescence unit (RFU) of COL1A1 promotor” value (shortened to “relative fluorescence unit (RFU)”) in the data set on COL1A1 promoter was 143674.9 ± 32109.7 RFU.

In the case of `N[C@@H](CC(=O)Nc1nc(CO)cs1)C(=O)O` [Compound 4a, N^4-(4-(hydroxymethyl)thiazol-2-yl)-L-asparagine], the melting point was 257.8 to 259.4 °C. In addition, in the data set on COL1A1 promoter (0.5 mM, 24 h), the inhibition at 500 µM was found to be 14.9 ± 8.45%. In addition, the “relative fluorescence unit (RFU)” value in the data set on COL1A1 promoter came to 106237.2 ± 10544.5 RFU.

As for `N[C@@H](CC(=O)Nc1nccs1)C(=O)O` [Compound 4b, N^4-(thiazol-2-yl)-L-asparagine], the melting point lay in the range of 268.9 to 271.2 °C. In addition, the inhibition at 500 µM in the data set with COL1A1 promoter (0.5 mM, 24 h) was determined as 31.2 ± 14.3%. In addition, the “relative fluorescence unit (RFU)” value in the data set with COL1A1 promoter came out at 85934.6 ± 17864.6 RFU.

Take `CNC(=O)C[C@H](N)C(=O)O` [Compound 4c, N^4-methyl-L-asparagine]: in the data set with COL1A1 promoter (0.5 mM, 24 h), the inhibition at 500 µM is 35.5 ± 18.1%. In addition, the “relative fluorescence unit (RFU)” value with COL1A1 promoter was 80485.7 ± 22615.1 RFU.

`CCNC(=O)C[C@H](N)C(=O)O` [Compound 4d, N^4-ethyl-L-asparagine]: in the data set on COL1A1 promoter (0.5 mM, 24 h), the inhibition at 500 µM came to 33.1 ± 19%.

Regarding `O=C(O)C[C@H](NC(=O)OCC1c2ccccc2-c2ccccc21)C(=O)NCCO` [Compound 5, (S)-3-((((9H-fluoren-9-yl)methoxy)carbonyl)amino)-4-((2-hydroxyethyl)amino)-4-oxobutanoic acid], the melting point is 113.6 to 115.1 °C. In the data set on COL1A1 promoter (0.5 mM, 24 h), the inhibition at 500 µM was determined as 24 ± 15.4%. Also, in the data set with COL1A1 promoter, the “relative fluorescence unit (RFU)” value is reported as 94919.5 ± 19273.7 RFU.

For `N[C@@H](CC(=O)O)C(=O)NCCO` [Compound 6, (S)-3-amino-4-((2-hydroxyethyl)amino)-4-oxobutanoic acid], the inhibition at 500 µM in the data set with COL1A1 promoter (0.5 mM, 24 h) is under 0%. In addition, the “relative fluorescence unit (RFU)” value in the data set with COL1A1 promoter is 128613.0 ± 57574.1 RFU.

Regarding `NC(=O)C[C@H](N)C(=O)N[C@@H](CC(=O)O)C(=O)O` [Compound 8b, L-asparaginyl-L-aspartic acid] (H-Asn-Asp-OH), the melting point lay in the range of 195.3 to 198.6 °C. Also, in the data set with COL1A1 promoter (0.5 mM, 24 h), the inhibition at 500 µM stood at 23.8 ± 4.57%. The “relative fluorescence unit (RFU)” value in the data set with COL1A1 promoter is recorded as 95132.4 ± 5710.5 RFU.

With `Cc1ccc(COC(=O)C[C@H](N)C(=O)O)cc1` [Compound 11a, (S)-2-amino-4-((4-methylbenzyl)oxy)-4-oxobutanoic acid], the melting point fell in the range of 228.1 to 229.6 °C. The inhibition at 500 µM with COL1A1 promoter (0.5 mM, 24 h) stood at 11.4 ± 18.5%. Besides, the “relative fluorescence unit (RFU)” value in the data set with COL1A1 promoter is on record as 110620.0 ± 23148.4 RFU.

On to `N[C@@H](CC(=O)OCc1ccc(F)cc1)C(=O)O` [Compound 11b, (S)-2-amino-4-((4-fluorobenzyl)oxy)-4-oxobutanoic acid], for which the melting point was 227.6 to 230.2 °C. Also, the inhibition at 500 µM with COL1A1 promoter (0.5 mM, 24 h) is under 0%. The “relative fluorescence unit (RFU)” value in the data set with COL1A1 promoter is on record as 130725.3 ± 8310.2 RFU.

Take `N[C@@H](CC(=O)OCc1ccc([N+](=O)[O-])cc1)C(=O)O` [Compound 11c, (S)-2-amino-4-((4-nitrobenzyl)oxy)-4-oxobutanoic acid]: the melting point was in the range of 207.2 to 209.5 °C. Besides, the inhibition at 500 µM in the data set with COL1A1 promoter (0.5 mM, 24 h) was under 0%. Besides, the “relative fluorescence unit (RFU)” value in the data set on COL1A1 promoter was 158140.3 ± 50740.1 RFU.

As to `Cc1ccc(COC(=O)[C@@H](N)CC(=O)O)cc1` [Compound 11d, (S)-3-amino-4-((4-methylbenzyl)oxy)-4-oxobutanoic acid], the melting point lay within 205.1 to 207.3 °C. In addition, in the data set on COL1A1 promoter (0.5 mM, 24 h), the inhibition at 500 µM stood at 19.9 ± 4.99%. Further, the “relative fluorescence unit (RFU)” value with COL1A1 promoter amounted to 100087.5 ± 6229.2 RFU.

As to `N[C@@H](CC(=O)O)C(=O)OCc1ccc(F)cc1` [Compound 11e, (S)-3-amino-4-((4-fluorobenzyl)oxy)-4-oxobutanoic acid], the melting point fell in the range of 197.6 to 199.5 °C. For the same compound, in the data set on COL1A1 promoter (0.5 mM, 24 h), the inhibition at 500 µM stood at 27.9 ± 5.81%. Moreover, the “relative fluorescence unit (RFU)” value with COL1A1 promoter is given as 89998.6 ± 7257.5 RFU.

Take `N[C@@H](CC(=O)O)C(=O)OCc1ccc([N+](=O)[O-])cc1` [Compound 11f, (S)-3-amino-4-((4-nitrobenzyl)oxy)-4-oxobutanoic acid]: the melting point fell in the range of 190.6 to 192.1 °C. Further, the inhibition at 500 µM in the data set with COL1A1 promoter (0.5 mM, 24 h) is 20.6 ± 14.3%. The “relative fluorescence unit (RFU)” value in the data set on COL1A1 promoter is reported as 99123.6 ± 17860.3 RFU.

`Cn1cc(O)c(=O)cc1CC(N)C(=O)O` (centres unmarked) [Compound 20b, 2-amino-3-(5-hydroxy-1-methyl-4-oxo-1,4-dihydropyridin-2-yl)propanoic acid]: the inhibition at 500 µM in the data set with COL1A1 promoter (0.5 mM, 24 h) was 24 ± 6.38%. In addition, the “relative fluorescence unit (RFU)” value with COL1A1 promoter stood at 94881.8 ± 7963.9 RFU.

`Cc1oc(COC(=O)C[C@H](N)C(=O)O)cc(=O)c1O` [Compound 23b, (S)-2-amino-4-((5-hydroxy-6-methyl-4-oxo-4H-pyran-2-yl)methoxy)-4-oxobutanoic acid]: the inhibition at 500 µM in the data set on COL1A1 promoter (0.5 mM, 24 h) amounted to 34.6 ± 1.75%. Moreover, the “relative fluorescence unit (RFU)” value in the data set with COL1A1 promoter amounted to 81660.6 ± 2179.5 RFU.

`Cc1cc(=O)n2c(CNC(=O)[C@H](N)CCO)csc2n1` [Compound 29, (R)-2-amino-4-hydroxy-N-((7-methyl-5-oxo-5H-thiazolo [3,2-a]pyrimidin-3-yl)methyl)butanamide]: in the data set on COL1A1 promoter (0.5 mM, 24 h), the inhibition at 500 µM turned out to be 33.2 ± 33.3%. In the data set on COL1A1 promoter, the “relative fluorescence unit (RFU)” value is given as 83406.5 ± 41616.9 RFU.

As to `Cc1cc(=O)n2c(COC(=O)C[C@H](N)C(=O)O)csc2n1` [Compound 31, (S)-2-amino-4-((7-methyl-5-oxo-5H-thiazolo [3,2-a]pyrimidin-3-yl)methoxy)-4-oxobutanoic acid], the inhibition at 500 µM in the data set with COL1A1 promoter (0.5 mM, 24 h) amounted to 14.6 ± 3.11%. For the same compound, in the data set with COL1A1 promoter, the “relative fluorescence unit (RFU)” value was 106608.6 ± 3888.3 RFU.

For `Cc1cc(=O)n2c(CNc3ccccn3)csc2n1` [Compound 32a, 7-methyl-3-((pyridin-2-ylamino)methyl)-5H-thiazolo [3,2-a]pyrimidin-5-one], the inhibition at 500 µM in the data set with COL1A1 promoter (0.5 mM, 24 h) is 47.7 ± 4.81%. For the same compound, the “relative fluorescence unit (RFU)” value in the data set on COL1A1 promoter came out at 65321.0 ± 6005.7 RFU.

In the case of `Cc1cc(=O)n2c(CN[C@@H](CC(=O)O)C(=O)O)csc2n1` [Compound 33, ((7-methyl-5-oxo-5H-thiazolo [3,2-a]pyrimidin-3-yl)methyl)-L-aspartic acid], the inhibition at 500 µM with COL1A1 promoter (0.5 mM, 24 h) turned out to be 6.39 ± 7.06%. Besides, the “relative fluorescence unit (RFU)” value in the data set on COL1A1 promoter turned out to be 116893.2 ± 8812.8 RFU.

In the case of `Cc1cc(=O)n2c(CC(=O)N[C@H]3CCOC3=O)csc2n1` [Compound 34a, (S)-2-(7-methyl-5-oxo-5H-thiazolo [3,2-a]pyrimidin-3-yl)-N-(2-oxotetrahydrofuran-3-yl)acetamide], the inhibition at 500 µM in the data set on COL1A1 promoter (0.5 mM, 24 h) stood at 15.5 ± 16.6%. In the data set with COL1A1 promoter, the “relative fluorescence unit (RFU)” value is 105579.0 ± 20740.0 RFU.

For the compound `N[C@@H](CC(=O)OCc1cc(=O)n2ccsc2n1)C(=O)O` [Compound 37, (S)-2-amino-4-oxo-4-((5-oxo-5H-thiazolo [3,2-a]pyrimidin-7-yl)methoxy)butanoic acid], in the data set with COL1A1 promoter (0.5 mM, 24 h), the inhibition at 500 µM was found to be 8.46 ± 8.16%. Also, in the data set on COL1A1 promoter, the “relative fluorescence unit (RFU)” value was 114307.8 ± 10191.8 RFU.

For `O=C(O[C@@H]1Cc2c(O)cc(O)cc2O[C@@H]1c1cc(O)c(O)c(O)c1)c1cc(O)c(O)c(O)c1` [EGCG, epigallocatechin gallate, reference compound], the “Inhibitory Rate (%) of COL1A1 promotor” value in the data set on COL1A1 promoter (0.5 mM, 24 h) amounted to 36.46 ± 4.64%. For the same compound, the “relative fluorescence unit (RFU)” value with COL1A1 promoter is listed as 79340.1 ± 5808.7 RFU.
